This is an account of results in US10765763B2, “Radioligands for myelin” (CASE WESTERN RESERVE UNIVERSITY, priority 2016, dated 2020).

Series [1] relates to myelin. The series can be described thus: In situ histological staining of SCI (T13) spinal cord after microPET/CT. Type of series: in vivo, rat. Particulars: SCI rats, 60 min after tail vein injection. On the procedure: After microPET imaging studies, the rats were administered compound 21 (3-5 mg) via tail vein injection, and 60 min later the rats were perfused transcardially with saline followed by 4% PFA in PBS. Spinal cords were then removed, postfixed by immersion in 4% PFA overnight, dehydrated in 30% sucrose solution, cryostat sectioned at 100 μm, mounted consecutively on superfrost slides, and images were sequentially acquired directly using a Leica fluorescent microscope to give a series of 2D microscopic images along the length of the spinal cord. Slices were aligned sequentially using a semiautomated image registration algorithm. Starting from the first slice image, the current slice was used as the reference image for alignment and the next slice was the floating image. The floating image was aligned via control point pairs between corresponding anatomic features in the two images. A 2D rigid-body transformation (translation, rotation) was used to transform the floating image to align with the reference and a minimum of three control point pairs were used for the transformation. […] All slices in the sequence were aligned by this technique, giving a 3D reconstructed fluorescence image volume. Image volumes from fluorescence, PET, and CT were visualized in Amira using volume rendering and aligned based on the shape of the spine and fiducials from the vertebrae. […]

Series [2] relates to myelin. Briefly: In vitro detection of focal demyelination in LPC rat model. Type of series: binding. As to conditions: in vitro tissue staining. On the procedure:
Sprague-Dawley female rats (220-250 g, 8 weeks old) were anesthetized and positioned in a stereotaxic frame (Stoelting). A small incision was made in the scalp, and the corpus callosum was targeted using the following stereotaxic coordinates, relative to bregma: anterior-posterior, 0.0 mm; medial-lateral, 2.0 mm; and dorsal-ventral, 3.4 mm A small hole was drilled in the skull, and a 26S-gauge needle attached to a 10 μL Hamilton Syringe was lowered into the corpus callosum according to the dorsal-ventral coordinate. A microinjector pump (Stoelting) controlled the infusion of 6 μL of lysolecithin (LPC, 0.1% in saline) at a rate of 0.25 μL/min, after which the needle was left in place for 2 min in order to prevent liquid reflux out of the brain parenchyma. The incision was then closed using 5-0 Ethicon sutures, and the animals were allowed to recover on a heating pad. After 5-7 days, the animals were ready for study.
Five days after surgery, the rats were anesthetized and perfused with saline followed by 4% PFA. […] Sections were then examined under a microscope (Leica DM4000B, Leica Microsystem Inc., Buffalo Grove, Ill., USA) equipped for fluorescence (DFC7000T), and images of the stained mouse whole brain sections were acquired with the same exposure time. […]

In series [3] the test system is myelin. Briefly: In situ staining of compound 21 in wild-type mice. In kind it is in vivo, mouse. Particulars: WT mice, 1.0 mg (50 mg/kg) tail vein, 1 h. On the procedure: Wild-type mice were administered the newly synthesized compounds (40 mg/kg) via tail vein injection, and 30-60 min later the mice were perfused transcardially with saline followed by 4% PFA in PBS. Brains and spinal cords were then removed, postfixed by immersion in 4% PFA overnight, dehydrated in 30% sucrose solution, cryostat sectioned at 100 μm, mounted on superfrost slides, and images were acquired directly using a Leica fluorescent microscope.
Following the in vitro studies, we then investigated the ability of compound 21 to readily enter the brain and bind to myelin in situ. A dose of 1.0 mg of compound 21 (50 mg/kg) was administered via the tail vein to wild-type (WT) mice. One hour after injection, the mice were perfused with saline followed by 4% paraformaldehyde (PFA) and the brain and spinal cord were removed and sectioned. The distribution of compound 21 was then directly examined under a fluorescent microscope.

For series [4], the system named is myelin. The series can be described thus: In situ autoradiography of [18F]21 in mouse brain. In kind it is in vivo. As to conditions: coronal, after tail vein injection. On the procedure:
Wild-type mice were euthanized at 30 min post iv injection of [^18F]21 (111 MBq, 3.0 mCi). The brains were rapidly removed, placed in OCT embedding medium, and frozen at −20° C. After reaching equilibrium at this temperature, the brains were coronally sectioned at 60 μm on a cryostat and mounted on superfrost slides. After drying by air at room temperature, the slides were put in a cassette and exposed for 20 min to film to obtain images.
To validate the PET results and confirm that the PET signals were indeed from specific binding to myelin, we conducted ex vivo autoradiography in the mouse brain following administration of [^18F]21 through tail vein injections. After 1 h, the mouse brain was dissected for coronal tissue sectioning. […] Thus, combination of in situ autoradiography and PET imaging confirmed that [^18F]21 binds specifically to myelin in vivo.

The nature of series [5]: Quantitative microPET/CT imaging in WT rats, Example 2. In kind it is in vivo, rat. On the procedure: (§1) For better anatomic localization, CT co-registration was applied.
Following radiosynthesis, the pharmacokinetic profile of [^18F]21 was fully characterized by quantitative microPET/CT imaging in WT rats (n=3). […] The brain radioactivity peaked at 3 min postinjection followed by rapid clearance before reaching a plateau at 40-60 min postinjection.

Series [6] has as its system myelin. The series can be described thus: Quantitative microPET/CT imaging of spinal cord in rat SCI model. As to conditions: for uptake in T13: normalized to average spine uptake. Type of series: in vivo. The protocol:
Sprague-Dawley female rats (220-250 g, 8 weeks old) were anesthetized and a restricted laminectomy was conducted to expose the dorsal surface of T13. The vertebral column between T12 and L1 was then stabilized with clamps and forceps fixed to the base of an Infinite Horizon impact device. The midpoint of T13 was impacted with a force of 250 kDyn using a 2.5 mm stainless steel impactor tip, which was used to induce a moderately severe contusive injury to the spinal cord. The musculature was then sutured over the laminectomy site and the skin closed with wound clips followed by subsequent treatment with Marcaine at the incision site. The force/displacement graph was used to monitor impact consistency. After surgery, the animals were carefully monitored daily for pain and body weight with manual bladder expression 2-3 times daily to stimulate reflex voiding until the animals could urinate independently.
as §1
So far, imaging of the spinal cord remains a great challenge. […] Next, we asked whether [18F]21 PET is capable of in vivo imaging of myelin deficiency or myelin damage in living animal models. We conducted [^18F]21-PET imaging in a rat model of thoracic contusive SCI. In this model, the contusion was made at T13 to introduce demyelination. In vivo [^18F]21 PET imaging was performed before (as a baseline scan) and 1 day after contusion. The uptake of [^18F]21 in every spine segment was then normalized to the average spine uptake. […] After microPET/CT imaging, we conducted in situ histological staining of the spinal cord 60 min after injection of nonlabeled compound 21 through the tail vein.

The test system of series [7] is myelin. Briefly: Quantitative microPET/CT imaging in Shiverer and WT mice. In kind it is in vivo, mouse. Particulars: microPET. The protocol: as §1
To further evaluate the in vivo binding specificity of [^18F]21, we investigated the pharmacokinetic profiles of [^18F]21 in a Shiverer mouse model that is deficient in myelin in the brain. Thus, the pharmacokinetic profiles of [^18F]21 were quantitatively compared between Shiverer mice (C3Fe.SWV-Mbpshi/J, n=2) and age-matched WT mice (CB57J, n=2).
Dynamic emission scans were acquired for 60 min in 3D list mode immediately after [^18F]21 (0.3 mCi each mouse, 11.1 MBq) was administered. The brain uptake of [^18F]21 was lower in the Shiverer brain than in the WT littermates (1.25 vs 1.64). After the brain concentration of [^18F]21 reached a plateau, the SUVs from 40 to 60 min were summarized and compared.

“Also recorded” adds a separate entry of the source.

Regarding `CNc1ccc(/C=C/c2ccc(NCc3cn(CCF)nn3)cc2)cc1` [Compound 21, (E)-N-((1-(2-Fluoroethyl)-1H-1,2,3-triazol-4-yl)methyl)-4-(4-(methylamino)styryl)aniline], the “in situ histological staining of SCI (T13) tissue section” value in the series with myelin [1] is “showed that a demyelinated lesion was present at the dorsal column”. Further, the “detection of demyelinated lesion by fluorescent staining” value with myelin [2] was “capable of detecting the demyelinated focal lesion by fluorescent staining; also recorded: can be used to detect demyelinated lesion”. The “brain/spinal cord entry and in situ myelin staining” value with myelin [3] is “readily entered the brain and spinal cord and localized in all the myelinated regions in proportion to the myelin content; also recorded: crosses the BBB and stains myelinated areas of the mouse brain”.

Take `CNc1ccc(/C=C/c2ccc(NCc3cn(CC[18F])nn3)cc2)cc1` [[^18F]21]: the autoradiographic labeling result with myelin [4] is listed as “distinctly labeled the corpus callosum”. Also, the brain uptake result is “high uptake in the brain” in series [5] (WT rats (n=3), microPET/CT); 1.25 in the series on myelin [7] (Shiverer mouse brain); 1.64 in the series on myelin [7] (WT littermates). For the same molecule, the “time constant of clearance” value in series [5] (WT rats, calculated from fitted time-radioactivity curve) was 19.45 min. Further, the “time of peak brain radioactivity” value in series [5] (WT rats, postinjection) worked out at 3 min. For the same molecule, the “time of plateau of brain radioactivity” value in series [5] (WT rats, postinjection) fell in the range of 40 to 60 min. The “uptake in L1” value is 1.08 in the series with myelin [6] (1 day post-T13 contusion) and 1.05 in the series with myelin [6] (before contusion). In addition, the “uptake in T12” value with myelin [6] (1 day post-T13 contusion) and in the series with myelin [6] (before contusion) was 0.99 throughout. Besides, the “uptake in T13” value in the series with myelin [6] (SCI group, 1 day post-T13 contusion) is given as 0.81; in the series on myelin [6] (baseline scan before contusion), 1.02.
